Data from patent publication US20220340983A1, “SYSTEMS AND ASSAYS FOR IDENTIFYING PU.1 INHIBITORS” (Massachustts Institute of Technology, priority 2019, published 2022).
pIC50: −log10 of the molar value.

Legend:
PU.1 = target: T1, PU.1 (Mus musculus, UniProt P17433); test: Luciferase assay (luminescence) in BV2 PU.1-Luciferase reporter cells; type: cell-based; conditions: luminescence reduction in BV2 PU.1-Luciferase cells, concentration-response, Hill's equation
T1 construct: endogenous in cells; host or cells: BV2 PU.1-Luciferase (mouse microglial BV2 with a 5xLBB-luciferase reporter integrated at ROSA26)

iPSC-microglia = test: Cell viability in iPSC-microglia; type: cell-based, human
Procedure: FIGS. 10A-10D show anti-inflammatory properties of A11 after IFNγ treatment on human induced pluripotent stem cell derived microglia. Cell viability is shown in FIG. 10A as measured with CellTiter Glo (Promega) in untreated (vehicle), A11 (2.5 μM) treated, IFNγ (25 ng/mL) treated and A11 +IFNγ treated cells. The morphology (round represent un-activated and elongated, filamentous represent activated by IFNγ) of these same conditions is shown in FIGS. 10B and quantified in FIG. 10C.
Human induced pluripotent stem cell derived microglia (iPSC-microglia) were activated with IFN-gamma (25 ng/mL, 3 days) and co-treated with A11 (2.5 μM, 2 days).
A concentration response curve was performed for cell viability and myelin uptake (FIG. 12A) in iPSC-microglia. Myelin uptake was measured by uptake of pHrodo-GFP-labelled wild-type mouse myelin particles (FIG. 12B). […] The IC50s obtained for these assays was in the low nM range, matching the data obtained in BV2 cells.

iPS and ES-microglia = test: ELISA for IL1β in microglia supernatant; type: cell-based, human
[1] = concentration response curve, iPSC-microglia, after 48 h

O=S(=O)(NCc1ccncc1)c1ccc(C2CCCCC2)cc1 [Compound A11]
pIC50 (PU.1): 8.70 | cell viability (CellTiter Glo) (iPSC-microglia; IFN-gamma 25 ng/mL 3 days, co-treated with A11 2.5 μM 2 days): No significant change | IC50 of cell viability (iPSC-microglia; [1]): low nM range | reduction in cell viability (iPSC-microglia; [1]): weak reduction | supernatant IL1β levels, increase by IFNγ (iPS and ES-microglia; 2-day IFNγ 25 ng/mL plus A11 20 nM, iPS and ES-microglia): reversed | IL1β concentration in the supernatant (iPS and ES-microglia; A11 alone 20nM, 2-day treatment): did not affect
